Measurements taken from ChEMBL document CHEMBL5113530, “Butyrylation Meets Adipogenesis-Probed by a p300-Catalyzed Acylation-Specific Small Molecule Inhibitor: Implication in Anti-obesity Therapy” (J Med Chem, 2022).
Active and inactive are the calls of the source. The calls are words filed in the database; no cut-off is given here.

Experiments:
3T3-L1 [1] = experiment: Anti-adipogenic activity against mouse 3T3-L1 cells assessed as downregulation of ACSS2 mRNA expression at 25 uM measured after 7 days by qRT-PCR analysis; assay type: functional, cell-based; conditions: time 7.0 day
[2] = Toxicity in female Sprague-Dawley rat assessed as average food intake at 1000 mg/kg, po administered as single dose measured on day 14 (Rvb =15.95 g/day); assay type: organism-based; conditions: in vivo, 336 h, time 14 day
[3] = Toxicity in male Sprague-Dawley rat assessed as average food intake at 250 mg/kg, po administered as single dose measured on day 7 (Rvb =20.24 g/day); assay type: organism-based; conditions: in vivo, 168 h, time 7 day
[4] = Toxicity in female Sprague-Dawley rat assessed as average water intake measured per day at 500 mg/kg, po administered as single dose measured on day 14 (Rvb =26 ml/day); assay type: organism-based; conditions: in vivo, 336 h, time 14 day
3T3-L1 [5] = experiment: Anti-adipogenic activity against mouse 3T3-L1 cells assessed as downregulation of CEBPA mRNA expression at 25 uM measured after 7 days by qRT-PCR analysis; assay type: functional, cell-based; conditions: time 7.0 day
[6] = Toxicity in female Sprague-Dawley rat assessed as average water intake measured per day at 500 mg/kg, po administered as single dose measured on day 7 (Rvb =21 ml/day); assay type: organism-based; conditions: in vivo, 168 h, time 7 day
[7] = Toxicity in female Sprague-Dawley rat assessed as average food intake at 250 mg/kg, po administered as single dose measured on day 7 (Rvb =15.65 g/day); assay type: organism-based; conditions: in vivo, 168 h, time 7 day
3T3-L1 [8] = experiment: Inhibition of H3K5 butyrylation in mouse 3T3-L1 cells by Immunoblotting analysis; assay type: functional, cell-based
Mus musculus [9] = experiment: Anti-obesity activity in db/db mouse assessed as reduction in H4K5 butyrylation level in epididymal fat pad at 50 mg/kg, po qd administered for 30 days by Immunoblotting analysis; assay type: functional, organism-based; conditions: time 30.0 day
[10] = Toxicity in male Sprague-Dawley rat assessed as average water intake measured per day at 500 mg/kg, po administered as single dose measured on day 14 (Rvb =34 ml/day); assay type: organism-based; conditions: in vivo, 336 h, time 14 day
Mus musculus [11] = experiment: Anti-obesity activity in db/db mouse assessed as reduction in hepatic steatosis at 50 mg/kg, po qd administered for 30 days by hematoxylin and eosin staining based assay; assay type: functional, organism-based; conditions: time 30.0 day
3T3-L1 [12] = experiment: Anti-adipogenic activity against mouse 3T3-L1 cells assessed as downregulation of SLC2A4 mRNA expression at 25 uM measured after 7 days by qRT-PCR analysis; assay type: functional, cell-based; conditions: time 7.0 day
[13] = Toxicity in female Sprague-Dawley rat assessed as effect on body weight at 500 mg/kg, po administered as single dose measured on day 14 (Rvb =171.5 +/- 6.65 g); assay type: organism-based; conditions: in vivo, 336 h, time 14 day
[14] = Mutagenicity in Salmonella typhimurium TA97a assessed as number of revertants measured per plate at 10 to 1000 incubated for 48 hrs in absence of rat liver S9 fraction by plate incorporation assay; assay type: toxicity; conditions: salmonella enterica subsp. enterica serovar typhimurium, s9, 48 h, dose 10-1000 µg
3T3-L1 [15] = experiment: Anti-adipogenic activity against mouse 3T3-L1 cells assessed as downregulation of FABP4 mRNA expression at 25 uM measured after 7 days by qRT-PCR analysis; assay type: functional, cell-based; conditions: time 7.0 day
Mus musculus [16] = experiment: Anti-obesity activity in db/db mouse assessed as daily food consumption […] at 50 mg/kg, po qd administered for 30 days and measured every week (reference value: 37.8 +/- 1.64 g); assay type: functional; conditions: time 30 day
[17] = Toxicity in female Sprague-Dawley rat assessed as average water intake measured per day at 250 mg/kg, po administered as single dose measured on day 1 (Rvb =25 ml/day); assay type: organism-based; conditions: in vivo, 24 h, time 1 day
[18] = Toxicity in female Sprague-Dawley rat assessed as effect on body weight at 1000 mg/kg, po administered as single dose measured on day 1 (Rvb =152.21 +/- 6.58 g); assay type: organism-based; conditions: in vivo, 24 h, time 1 day
Mus musculus [19] = experiment: Anti-obesity activity in db/db mouse assessed as reduction in H4K5 butyrylation level in liver at 50 mg/kg, po qd administered for 30 days by DAPI staining based immunofluorescence microscopic analysis; assay type: functional, organism-based; conditions: time 30.0 day
[20] = Toxicity in female Sprague-Dawley rat assessed as average food intake at 500 mg/kg, po administered as single dose measured on day 14 (Rvb =15.95 g/day); assay type: organism-based; conditions: in vivo, 336 h, time 14 day
[21] = Toxicity in male Sprague-Dawley rat assessed as effect on body weight at 250 mg/kg, po administered as single dose measured on day 1 (reference value: 174.75 +/- 7.61 g); assay type: organism-based; conditions: in vivo, 24 h, time 1 day
[22] = Toxicity in male Sprague-Dawley rat assessed as average food intake at 1000 mg/kg, po administered as single dose measured on day 7 (Rvb =20.24 g/day); assay type: organism-based; conditions: in vivo, 168 h, time 7 day
[23] = Toxicity in male Sprague-Dawley rat assessed as effect on body weight at 1000 mg/kg, po administered as single dose measured on day 1 (reference value: 174.75 +/- 7.61 g); assay type: organism-based; conditions: in vivo, 24 h, time 1 day
Mus musculus [24] = experiment: Anti-obesity activity in C57BL6/J mouse model of high fat diet-induced obesity assessed as reduction in adipocyte hypertrophy at 50 mg/kg by hematoxylin and eosin staining based assay; assay type: functional, organism-based
[25] = Toxicity in male Sprague-Dawley rat assessed as average food intake at 500 mg/kg, po administered as single dose measured on day 7 (Rvb =20.24 g/day); assay type: organism-based; conditions: in vivo, 168 h, time 7 day
[26] = Toxicity in female Sprague-Dawley rat assessed as average food intake at 500 mg/kg, po administered as single dose measured on day 1 (Rvb =17.84 g/day); assay type: organism-based; conditions: in vivo, 24 h, time 1 day
[27] = Mutagenicity in Salmonella typhimurium TA100 assessed as number of revertants measured per plate at 10 to 1000 incubated for 48 hrs in absence of rat liver S9 fraction by plate incorporation assay; assay type: toxicity; conditions: salmonella enterica subsp. enterica serovar typhimurium, s9, 48 h, dose 10-1000 µg
[28] = Toxicity in male Sprague-Dawley rat assessed as average water intake measured per day at 250 mg/kg, po administered as single dose measured on day 7 (Rvb =30 ml/day); assay type: organism-based; conditions: in vivo, 168 h, time 7 day
[29] = Toxicity in male Sprague-Dawley rat assessed as average water intake measured per day at 500 mg/kg, po administered as single dose measured on day 1 (Rvb =32 ml/day); assay type: organism-based; conditions: in vivo, 24 h, time 1 day
[30] = biological target: Histone acetyltransferase p300 (Homo sapiens) (UniProt Q09472); experiment: Inhibition of wild-type His-tagged EP300 catalytic domain catalyzed butyrylation (unknown origin) expressed in Escherichia coli BL21 (DE3) using Histone H3 as substrate at 25 uM preincubated with compound for 10 mins followed by butyryl-CoA addition and measured after 10 mins by Western blot analysis; conditions: time 20.0 min
[31] = Mutagenicity in Salmonella typhimurium TA102 assessed as number of revertants measured per plate at 10 to 1000 incubated for 48 hrs in presence of rat liver S9 fraction by plate incorporation assay; assay type: toxicity; conditions: salmonella enterica subsp. enterica serovar typhimurium, s9, 48 h, dose 10-1000 µg
[32] = Toxicity in male Sprague-Dawley rat assessed as effect on body weight at 500 mg/kg, po administered as single dose measured on day 7 (reference value: 217.38 +/- 11.38 g); assay type: organism-based; conditions: in vivo, 168 h, time 7 day
Mus musculus [33] = experiment: Anti-obesity activity in C57BL6/J mouse model of high fat diet-induced obesity assessed as reduction in H4K5 butyrylation level in epididymal fat pad at 50 mg/kg by Immunoblotting analysis; assay type: functional, organism-based

Histone acetyltransferase p300 (Homo sapiens), sequence (Q09472 whole entry, the tested form may be a part): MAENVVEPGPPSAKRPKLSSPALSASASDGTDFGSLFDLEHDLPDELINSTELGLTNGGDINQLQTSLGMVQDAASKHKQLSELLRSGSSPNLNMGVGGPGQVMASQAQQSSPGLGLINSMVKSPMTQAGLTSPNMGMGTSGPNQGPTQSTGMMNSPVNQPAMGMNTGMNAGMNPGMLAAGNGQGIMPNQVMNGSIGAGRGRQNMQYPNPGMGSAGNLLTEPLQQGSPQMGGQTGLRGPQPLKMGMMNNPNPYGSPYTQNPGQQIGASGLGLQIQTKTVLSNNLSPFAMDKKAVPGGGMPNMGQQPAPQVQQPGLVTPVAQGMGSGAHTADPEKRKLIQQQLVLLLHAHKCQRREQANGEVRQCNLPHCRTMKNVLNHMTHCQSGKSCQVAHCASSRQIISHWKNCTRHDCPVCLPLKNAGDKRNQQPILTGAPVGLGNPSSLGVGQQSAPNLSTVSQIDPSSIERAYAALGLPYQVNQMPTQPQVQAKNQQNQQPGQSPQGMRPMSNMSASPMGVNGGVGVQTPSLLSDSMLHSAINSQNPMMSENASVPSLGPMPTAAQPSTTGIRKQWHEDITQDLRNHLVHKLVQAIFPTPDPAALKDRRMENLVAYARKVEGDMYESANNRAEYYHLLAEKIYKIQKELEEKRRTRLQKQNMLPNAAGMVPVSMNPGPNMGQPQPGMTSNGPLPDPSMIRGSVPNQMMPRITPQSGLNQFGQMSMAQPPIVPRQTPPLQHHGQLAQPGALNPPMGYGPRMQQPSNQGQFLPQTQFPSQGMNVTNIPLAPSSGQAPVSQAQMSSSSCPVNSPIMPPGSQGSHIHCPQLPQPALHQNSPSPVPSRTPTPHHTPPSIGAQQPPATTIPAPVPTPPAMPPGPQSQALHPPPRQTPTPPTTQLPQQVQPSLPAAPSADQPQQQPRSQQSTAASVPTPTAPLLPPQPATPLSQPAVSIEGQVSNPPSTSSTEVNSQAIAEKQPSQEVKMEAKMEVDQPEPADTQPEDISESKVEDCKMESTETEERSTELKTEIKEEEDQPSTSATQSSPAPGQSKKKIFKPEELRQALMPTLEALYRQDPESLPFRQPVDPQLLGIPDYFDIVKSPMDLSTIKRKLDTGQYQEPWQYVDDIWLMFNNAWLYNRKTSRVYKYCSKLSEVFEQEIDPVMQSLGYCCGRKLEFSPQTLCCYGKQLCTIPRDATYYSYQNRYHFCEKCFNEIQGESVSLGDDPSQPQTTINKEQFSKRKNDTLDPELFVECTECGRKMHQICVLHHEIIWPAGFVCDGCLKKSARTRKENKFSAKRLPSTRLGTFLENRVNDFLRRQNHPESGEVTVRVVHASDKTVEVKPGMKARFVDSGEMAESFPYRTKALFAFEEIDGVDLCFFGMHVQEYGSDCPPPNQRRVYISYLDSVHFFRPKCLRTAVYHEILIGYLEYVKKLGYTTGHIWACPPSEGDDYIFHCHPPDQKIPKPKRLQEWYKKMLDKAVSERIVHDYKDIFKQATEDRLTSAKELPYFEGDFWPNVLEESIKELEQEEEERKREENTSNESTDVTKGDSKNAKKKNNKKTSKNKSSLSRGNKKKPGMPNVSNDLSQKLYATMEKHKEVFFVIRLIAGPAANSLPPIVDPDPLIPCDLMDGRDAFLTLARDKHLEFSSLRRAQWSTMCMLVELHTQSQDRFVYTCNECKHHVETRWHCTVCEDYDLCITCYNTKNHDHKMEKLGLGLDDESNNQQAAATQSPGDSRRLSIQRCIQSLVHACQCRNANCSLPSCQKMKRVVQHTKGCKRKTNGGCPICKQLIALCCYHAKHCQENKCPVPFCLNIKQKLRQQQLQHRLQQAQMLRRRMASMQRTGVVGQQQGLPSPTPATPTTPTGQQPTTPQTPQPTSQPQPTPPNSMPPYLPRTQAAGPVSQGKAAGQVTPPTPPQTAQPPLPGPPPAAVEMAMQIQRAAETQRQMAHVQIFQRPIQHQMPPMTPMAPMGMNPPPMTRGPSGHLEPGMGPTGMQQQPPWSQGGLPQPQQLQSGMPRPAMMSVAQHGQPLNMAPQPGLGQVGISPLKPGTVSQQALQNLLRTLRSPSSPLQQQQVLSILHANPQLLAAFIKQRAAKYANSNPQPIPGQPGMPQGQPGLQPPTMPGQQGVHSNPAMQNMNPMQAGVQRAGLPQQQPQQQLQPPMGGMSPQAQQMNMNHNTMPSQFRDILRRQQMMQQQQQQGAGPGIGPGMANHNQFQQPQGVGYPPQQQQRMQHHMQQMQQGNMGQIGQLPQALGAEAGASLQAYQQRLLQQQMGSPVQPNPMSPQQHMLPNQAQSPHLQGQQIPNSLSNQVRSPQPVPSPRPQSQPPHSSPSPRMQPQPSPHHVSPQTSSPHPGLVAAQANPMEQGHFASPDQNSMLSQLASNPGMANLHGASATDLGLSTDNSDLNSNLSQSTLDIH

- inhibition [30]: Active
SMILES: COc1ccc(C(=O)C2=C3OC(C)(C)[C@@H](CC=C(C)C)C[C@@]34C[C@@H](CC=C(C)C)C(C)(C)[C@](CC=C(C)C)(C2=O)C4=O)cc1OC
- Activity (3T3-L1 [1]): Active
- Activity [2]: 16.97 g/day
- Activity [3]: 20.79 g/day
- Activity [4]: 26 mL
- Activity (3T3-L1 [5]): Active
- Activity [6]: 23 mL
- Activity [7]: 16.32 g/day
- inhibition (3T3-L1 [8]): Active
- Activity (Mus musculus [9]): Active
- Activity [10]: 40 mL
- Activity (Mus musculus [11]): Active
- Activity (3T3-L1 [12]): Active
- Activity [13]: 175.8 g
- Activity [14]: Non-Toxic
- Activity (3T3-L1 [15]): Active
- Activity (Mus musculus [16]): 34 g
- Activity [17]: 26 mL
- Activity [18]: 153.81 g
- Activity (Mus musculus [19]): Active
- Activity [20]: 17.09 g/day
- Activity [21]: 171.94 g
- Activity [22]: 20.74 g/day
- Activity [23]: 176.24 g
- Activity (Mus musculus [24]): Active
- Activity [25]: 21.14 g/day
- Activity [26]: 18.22 g/day
- Activity [27]: Non-Toxic
- Activity [28]: 27 mL
- Activity [29]: 36 mL
- Activity [31]: Non-Toxic
- Activity [32]: 229.75 g
- Activity (Mus musculus [33]): Active
